# According to PMC9780942, “Antimicrobial Activity and Immunomodulatory Properties of Acidocin A, the Pediocin-like Bacteriocin with the Non-Canonical Structure” (Membranes, 2022):
# Positions of bridges follow the written chain, without caps; N, C: chain ends. Residues, ends and D or L forms follow the SMILES beside them. No end group written: not given here.
# Experiments:
# M. luteus Ac-2229 = format: cell-based; conditions: Ac-2229, 24 h
# Experimental: (§1) Antibacterial activity of recombinant bacteriocins against a number of Gram-positive and Gram-negative bacteria (Table S2) was determined by the method of two-fold serial dilutions in a liquid medium. Two-fold serial dilutions of bacteriocins were prepared in sterile 96-well flat-bottom polystyrene microplates (Eppendorf, Hamburg, Germany) (Cat. No. 0030730.011) in a volume of 50 µL of sterile 0.1% bovine serum albumin (BSA) (SERVA Electrophoresis GmbH, Heidelberg, Germany) to prevent non-specific sorption of peptides to the surface of the plate wells [23]. Mid-log phase bacterial cultures were diluted with the 2x Mueller-Hinton broth (MHB) (Sigma-Aldrich, St. Louis, MO, USA) to a final cell concentration of 10^6 colony forming units (CFU) per mL. To determine the activity of bacteriocins against Listeria and Enterococci, 3% tryptic soy broth (TSB) (Merck-Millipore, Burlington, MA, USA) was used instead of MHB. Aliquots of 50 μL of diluted bacterial suspensions were added to each well of the plate, which was then incubated at 37 °C and 950 rpm for 24 h using thermostatable plate shaker PST-60HL-4 (Biosan, Riga, Latvia). As a negative control, 50 µL of the sterile growth medium (2xMHB or 6% TSB) was added to the wells containing 50 µL of 0.1% BSA. The values of the minimum inhibitory concentrations (MIC) were determined as the minimum concentration of the peptide, at which there was no visible growth of bacterial culture. Incubation for 2 h with 20 µg/mL chromogenic substrate resazurin (Sigma-Aldrich, St. Louis, MO, USA) was used to detect viable bacterial cells if they were difficult to visually detect. To study the effect of inorganic salts on the antimicrobial activity of bacteriocins, antibacterial activity assay was carried out in MHB medium supplemented with 0.9% NaCl.
# E. coli SQ110 = format: cell-based; conditions: SQ110, 24 h
# Experimental: as §1
# M. phlei Ac-1221 = format: cell-based; conditions: 24 h
# Experimental: as §1
# E. coli XDR CI 1057 = format: cell-based; conditions: XDR CI 1057, 24 h
# Experimental: as §1
# L. lactis MK66 = format: cell-based; conditions: MK66, 24 h
# Experimental: as §1
# [1] = test system: P. aeruginosa MDR CI 1995; format: cell-based; conditions: MDR CI 1995, 24 h
# Experimental: as §1
# A. baumannii XDR CI 2675 = format: cell-based; conditions: XDR CI 2675, 24 h
# Experimental: as §1
# E. coli ML-35p = format: cell-based; conditions: 24 h
# Experimental: as §1
# E. coli ATCC 25922 = format: cell-based; conditions: ATCC 25922, 24 h
# Experimental: as §1
# S. aureus 209P = format: cell-based; conditions: 24 h
# Experimental: as §1
# B. subtilis B-886 = format: cell-based; conditions: B-886, 24 h
# Experimental: as §1
# B. licheniformis B-511 = format: cell-based; conditions: 24 h
# Experimental: as §1
# L. monocytogenes EGD = format: cell-based, Listeria monocytogenes; conditions: 24 h
# Experimental: as §1
# L. lactis MK43 = assay: Antibacterial activity assay (MIC), two-fold serial dilutions in liquid medium; format: cell-based; conditions: for Minimum Inhibitory Concentration: MHB, 0.1% BSA, 37 °C, 24 h, no visible growth; for Minimum inhibitory concentration in the presence of NaCl: MHB supplemented with 0.9% NaCl
# Experimental: as §1
Molecule,Minimum Inhibitory Concentration (M. luteus Ac-2229),Minimum Inhibitory Concentration (E. coli SQ110),Minimum Inhibitory Concentration (M. phlei Ac-1221),Minimum Inhibitory Concentration (E. coli XDR CI 1057),Minimum Inhibitory Concentration (L. lactis MK66),Minimum Inhibitory Concentration [1],Minimum Inhibitory Concentration (A. baumannii XDR CI 2675),Minimum Inhibitory Concentration (E. coli ML-35p),Minimum Inhibitory Concentration (E. coli ATCC 25922),Minimum Inhibitory Concentration (S. aureus 209P),Minimum Inhibitory Concentration (B. subtilis B-886),Minimum Inhibitory Concentration (B. licheniformis B-511),Minimum Inhibitory Concentration (L. monocytogenes EGD),Minimum Inhibitory Concentration (L. lactis MK43),Minimum inhibitory concentration in the presence of NaCl (E. coli SQ110),Minimum inhibitory concentration in the presence of NaCl (L. lactis MK66),Minimum inhibitory concentration in the presence of NaCl (E. coli ML-35p),Minimum inhibitory concentration in the presence of NaCl (B. subtilis B-886),Minimum inhibitory concentration in the presence of NaCl (B. licheniformis B-511),Minimum inhibitory concentration in the presence of NaCl (L. lactis MK43)
CC[C@H](C)[C@H](NC(=O)[C@H](Cc1ccc(O)cc1)NC(=O)[C@@H](NC(=O)[C@@H](NC(=O)[C@H](CC(N)=O)NC(=O)[C@H](CCC(N)=O)NC(=O)[C@H](CC(=O)O)NC(=O)[C@H](Cc1ccc(O)cc1)NC(=O)[C@H](CCCCN)NC(=O)[C@@H](NC(=O)[C@H](CC(N)=O)NC(=O)[C@H](CCCCN)NC(=O)[C@H](CC(C)C)NC(=O)[C@H](CCCNC(=N)N)NC(=O)[C@@H](NC(=O)[C@H](CCCCN)NC(=O)CNC(=O)[C@H](Cc1c[nH]c2ccccc12)NC(=O)[C@H](CC(C)C)NC(=O)[C@H](CO)NC(=O)[C@H](CC(N)=O)NC(=O)[C@H](CCCCN)NC(=O)[C@@H](NC(=O)[C@H](CS)NC(=O)[C@H](Cc1c[nH]cn1)NC(=O)[C@@H](NC(=O)CNC(=O)[C@H](CC(N)=O)NC(=O)[C@@H](NC(=O)CNC(=O)[C@H](Cc1ccc(O)cc1)NC(=O)[C@H](Cc1ccc(O)cc1)NC(=O)[C@@H](NC(=O)[C@@H](N)CCCCN)[C@@H](C)O)[C@@H](C)O)C(C)C)[C@@H](C)O)C(C)C)C(C)C)[C@@H](C)O)[C@@H](C)O)C(=O)NCC(=O)N[C@@H](CCCNC(=N)N)C(=O)N[C@@H](CC(C)C)C(=O)N[C@@H](CCC(N)=O)C(=O)N[C@@H](CC(=O)O)C(=O)N[C@H](C(=O)N[C@@H](CC(C)C)C(=O)N[C@@H](CC(C)C)C(=O)NCC(=O)N[C@@H](Cc1c[nH]c2ccccc12)C(=O)N[C@@H](C)C(=O)N[C@H](C(=O)NCC(=O)N[C@@H](C)C(=O)N[C@@H](Cc1ccccc1)C(=O)NCC(=O)N[C@@H](CCCCN)C(=O)N[C@H](C(=O)N[C@@H](Cc1ccccc1)C(=O)N[C@@H](Cc1c[nH]cn1)C(=O)O)[C@@H](C)O)[C@@H](C)O)[C@@H](C)CC [OR-7(VI) (DTT reduced)] (H-KTYYGTNGVHCTKNSLWGKVRLKNVKYDQNTTYIGRLQDILLGWATGAFGKTFH-OH; N-terminus and C-terminus assumed),>32 µM,>32 µM,32 µM,>32 µM,4 µM,>32 µM,>32 µM,>32 µM,>32 µM,>32 µM,16 µM,8 µM,>32 µM,>32 µM,–,–,–,–,–,–
HCTKKSLWGKVRLKNVIPGTLCRKQSLPIKQDLKILLGWATGAFGKTFH (disulfide 2-22) [AcdA(d9)],16 µM,8 µM,4 µM,8 µM,2 µM,16 µM,4 µM,4 µM,16 µM,16 µM,8 µM,8 µM,>32 µM,8 µM,32 µM,> 32 µM,16 µM,> 32 µM,> 32 µM,> 32 µM
KTYVGNTGYHCTKKSLWGKVRLKNVIPGTLCRKQSLPIKQDLKILLGWATGAFGKTFH (disulfide 11-31) [AcdA(x4)],8 µM,8 µM,4 µM,8 µM,2 µM,16 µM,4 µM,8 µM,16 µM,16 µM,8 µM,4 µM,>32 µM,4 µM,32 µM,> 32 µM,16 µM,> 32 µM,> 32 µM,> 32 µM
KTYYGNGVHCTKKSLWGKVRLKNVIPGTLCRKQSLPIKQDLKILLGWATGAFGKTFH (cysteines drawn unpaired) [AcdA(dT) (DTT reduced)],16 µM,4 µM,4 µM,16 µM,1 µM,>32 µM,8 µM,4 µM,8 µM,16 µM,4 µM,4 µM,>32 µM,2 µM,–,–,–,–,–,–
KTYYGNGVHCTKKSLWGKVRLKNVIPGTLCRKQSLPIKQDLKILLGWATGAFGKTFH (disulfide 10-30) [AcdA(dT)],8 µM,1 µM,2 µM,8 µM,0.5 µM,16 µM,4 µM,2 µM,4 µM,8 µM,2 µM,2 µM,>128 µM,1 µM,8 µM,32 µM,16 µM,> 32 µM,> 32 µM,> 32 µM
"KTYYGNGVHSTKKSLWGKVRLKNVIPGTLSRKQSLPIKQDLKILLGWATGAFGKTFH [AcdA(dT,C11S,C31S)]",32 µM,16 µM,8 µM,>64 µM,1 µM,>32 µM,>32 µM,>64 µM,>64 µM,>32 µM,4 µM,4 µM,>32 µM,4 µM,> 32 µM,> 32 µM,–,> 32 µM,> 32 µM,> 32 µM
KTYYGTNAVHCTKKSLWGKVRLKNVIPGTLCRKQSLPIKQDLKILLGWATGAFGKTFH (disulfide 11-31) [AcdA(G8A)],16 µM,4 µM,2 µM,8 µM,2 µM,16 µM,8 µM,8 µM,16 µM,8 µM,8 µM,8 µM,>32 µM,4 µM,32 µM,> 32 µM,16 µM,> 32 µM,> 32 µM,> 32 µM
